We go through three molecules from patent publication US8580769B2, “Treatment of obesity, metabolic syndrome, and diabetes with protein kinase C inhibitors” (The United States of America as represented by the …, priority 2011, dated 2013).

Assay [1] has as its target T1, Akt2 (Mus musculus, UniProt Q60823).
T1 construct: from tissue; host or cells: mouse liver, quadriceps muscle and abdominal adipose tissue
The assay is described as follows: tissue Akt activity in Het-MλKO mice. The class given is in vivo. The settings on record: for Akt activation in adipose tissue / Akt activation in muscle: 7-day treatment s.c. (ATM 60 mg/kg; ICAPP 0.4 mg/kg). From the text:
(§1) In Vivo Mouse Studies: Male wild type (WT) and heterozygous muscle-specific PKC-λ knockout (Het-MλKO) mice were generated as described (Farese et al., J. Clin. Invest. 117:2289-2301, 2007) and used at 6-12 months of age, when the O/MS/T2DM phenotype in MλKO mice is well-developed. Mice were housed in a temperature-controlled environment with alternating 12-hour light and dark cycles, and fed ad libitum with standard chow (Harlan Teklad 20/18 with 5% fat, (10% of calories from fat)). All experimental procedures in mice were approved by the Institutional Animal Care and Use Committees of the Roskamp Institute and the University of South Florida College of Medicine, and the James A. Haley Veterans Administration Medical Center Research and Development Committee, Tampa, Fla.
(§2) (ICAPP; prepared by Southern Research, Birmingham, Ala.) at 0.4 mg/kg body weight. On the morning of the eighth day of inhibitor treatment, mice were injected intraperitoneally (IP) with 0.9% saline or saline containing 1 U insulin/kg body weight 15 minutes before sacrifice, an optimal time for studies of insulin stimulation of aPKC and Akt in liver, muscle and adipose tissues (Standaert et al., J. Biol. Chem. 279:24929-24934, 2004; Sajan et al., J. Lipid Res. 50:1133-1145, 2009; Sajan et al., Diabetologia 52:1197-1207, 2009; Farese et al., J. Clin. Invest. 117:2289-2301, 2007). After killing, blood, liver, quadriceps muscle and abdominal adipose tissues were rapidly removed and homogenized in buffer with a POLYTRON® homogenizer.
Tissue and Immunoprecipitate Preparations: As previously described (Standaert et al., J. Biol. Chem. 279:24929-24934, 2004; Sajan et al., J. Lipid Res. 50:1133-1145, 2009; Sajan et al., Diabetologia 52:1197-1207, 2009; Farese et al., J. Clin. Invest. 117:2289-2301, 2007) hepatocytes and tissues from in vivo experiments were homogenized in ice-cold buffer containing 0.25 M sucrose, 20 mM Tris/HCl (pH 7.5), 2 mM EGTA, 2 mM EDTA, 1 mM phenylmethylsulfonyl fluoride (PMSF), 20 μg/ml leupeptin, 10 μg/ml aprotinin, 2 mM Na4P2O7, 2 mM Na3VO4, 2 mM NaF, and 1 μM microcystin. After centrifugation for 10 minutes at 700×g to remove unbroken cells, debris, nuclei, and floating fat, cell lysates were stored at −70° C. After addition of 1% TRITON® X-100, 0.6% Nonidet and 150 mM NaCl, lysates were cleared of insoluble materials by low-speed centrifugation and subsequently immunoprecipitated with antibodies that target: (a) aPKCs (rabbit polyclonal antiserum from Santa Cruz Biotechnologies (Santa Cruz, Calif.) that recognizes C-termini of both PKC-λ and PKC-ζ); and (b) Akt2 (Upstate Cell Signaling/Millipore, Billerica, Mass.). Immunoprecipitates were collected on Sepharose-AG beads (Santa Cruz Biotechnologies).
Akt2 Assay: Akt2 enzyme activity was measured with a kit obtained from Upstate Cell Signaling, as described (Standaert et al., J. Biol. Chem. 279:24929-24934, 2004; Sajan et al., J. Lipid Res. 50:1133-1145, 2009; Sajan et al., Diabetologia 52:1197-1207, 2009; Farese et al., J. Clin. Invest. 117:2289-2301, 2007). In brief, Akt2 was immunoprecipitated from lysates with rabbit polyclonal antibodies, collected on Sepharose-AG beads, and incubated as per kit directions. Akt1/2 activation was also assessed by immunoblotting for phosphorylation of serine-473.

Assay [2] concerns Het-MλKO mice. The assay is described as follows: clinical parameters in Het-MλKO mice (model of obesity/metabolic syndrome/T2DM). Type of assay: in vivo, mouse. The settings on record: for hepatic triglycerides / resting (basal) serum insulin levels: 7-day treatment s.c. (ATM 60 mg/kg; ICAPP 0.4 mg/kg); for serum glucose levels following acute insulin treatment: insulin 1 U/kg i.p.; for basal serum glucose levels (before insulin): s.c. once daily (ICAPP 0.4 mg/kg; ICAP 0.5 mg/kg).
Description: as §1, §2
Measurements of Serum Triglycerides, Cholesterol, Free Fatty Acids, Insulin and Glucose: Serum triglycerides, cholesterol, free fatty acids, insulin and glucose levels were measured as previously described (Sajan et al., J. Lipid Res. 50:1133-1145, 2009; Sajan et al., Diabetologia 52:1197-1207, 2009; Farese et al., J. Clin. Invest. 117:2289-2301, 2007).
Both aPKC inhibitors were tested in a murine model of O/MS/T2DM, a heterozygous muscle-specific PKC-λ knockout (Het-MλKO) mice, wherein defective insulin-stimulated glucose transport in muscle leads to glucose intolerance, systemic insulin resistance, hyperinsulinemia, increased hepatic aPKC activity, activation of hepatic SREBP-1c and IKKβ/NFκB, and thus to increased expression of hepatic enzymes engaged in lipogenesis and cytokine production, and ultimately to hepatosteatosis, abdominal obesity, hypertriglyceridemia, fatty acidemia, hypercholesterolemia, hyperinsulinemia, glucose intolerance, fasting hyperglycemia, and diminished glucose-lowering effects of acutely administered insulin (Sajan et al., J. Lipid Res. 50:1133-1145, 2009; Farese et al., J. Clin. Invest. 117:2289-2301, 2007).

The mark [3] stands for this setting: Het-MλKO mice, s.c. once daily (ATM 60 mg/kg; ICAPP 0.4 mg/kg; ICAP 0.5 mg/kg).
The mark [4] stands for this setting: ICAP-treated Mλ-Het KO mice (n = 12), 0.5 mg/kg body weight/day x 8 days s.c., mean ± SEM.

T1 sequence (Q60823 whole entry): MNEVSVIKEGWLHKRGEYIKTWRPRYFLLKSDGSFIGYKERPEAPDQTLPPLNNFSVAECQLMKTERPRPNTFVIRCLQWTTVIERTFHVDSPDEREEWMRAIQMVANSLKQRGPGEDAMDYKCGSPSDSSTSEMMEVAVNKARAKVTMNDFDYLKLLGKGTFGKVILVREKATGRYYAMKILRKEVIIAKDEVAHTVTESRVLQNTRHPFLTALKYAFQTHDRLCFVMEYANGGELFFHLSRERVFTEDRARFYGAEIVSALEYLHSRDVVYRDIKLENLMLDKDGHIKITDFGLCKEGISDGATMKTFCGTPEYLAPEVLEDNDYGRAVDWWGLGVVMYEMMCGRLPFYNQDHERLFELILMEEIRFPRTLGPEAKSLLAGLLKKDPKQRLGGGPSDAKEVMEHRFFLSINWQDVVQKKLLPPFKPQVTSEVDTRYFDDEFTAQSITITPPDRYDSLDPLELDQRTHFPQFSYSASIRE

For the molecule `NC(=O)c1ncn([C@@H]2C[C@H](COP(=O)(O)O)[C@@H](O)[C@H]2O)c1N` [ICAPP, 1H-imidazole-4-carboxamide, 5-amino-1-[2,3-dihydroxy-4-[(phosphonooxy)methyl]cyclopentyl]-[1R-(1α,2β,3β,4α)]], in assay [1] (Het-MλKO mice), the “Akt activation in adipose tissue” value is “increased significantly or trended upward” and the “Akt activation in muscle” value is “increased significantly or trended upward”. Also, in assay [2] (Het-MλKO mice), the hepatic triglycerides result is “marked improvements”, the “resting (basal) serum insulin levels” value is reported as “marked improvements” and the “basal serum glucose levels (before insulin)” value is “marked improvements”. The “serum free fatty acids” value in assay [2] (Het-MλKO mice, ICAPP 0.4 mg/kg/day s.c., 7 days) is given as “marked improvements”. Besides, in assay [2] (Het-MλKO mice, ICAPP-treated), the food intake result is “not altered”. Moreover, in assay [2] (setting [3]), the abdominal fat content entry is “marked improvements”, the serum cholesterol result is recorded as “marked improvements”, the serum triglycerides entry is recorded as “marked improvements” and the “serum glucose levels following acute insulin treatment” value is on record as “marked improvements”.

Take `NC(=O)c1ncn([C@@H]2C[C@H](CO)[C@@H](O)[C@H]2O)c1N` [ICAP, 1H-imidazole-4-carboxamide 5-amino-1-[2,3-dihydroxy-4-[hydroxymethyl]cyclopentyl]-[1R-(1α,2β,3β,4α)]]: in assay [1] (setting [4]), the “Hepatic Akt activity” value amounted to 1151 ± 226 cpm/immunoppt. In assay [2] (setting [3]), the abdominal fat content entry is “diminished”, the serum cholesterol result was “diminished”, the serum triglycerides result is given as “diminished” and the “serum glucose levels following acute insulin treatment” value is listed as “diminished”. Further, the “basal serum glucose levels (before insulin)” value in assay [2] (Het-MλKO mice) is listed as “diminished”. For the same molecule, in assay [2] (setting [4]), the Abdominal fat is reported as 26 ± 3.2 mg/g body weight, the “Ad lib-fed serum glucose” value came to 139 ± 20 mg/dL, the serum cholesterol was found to be 108 ± 10 mg/dL and the serum triglycerides is reported as 104 ± 7 mg/dL.

On to `O=C([O-])CC([S][Au])C(=O)[O-]` (stereo not drawn) [ATM, aurothiomalate, reference compound], for which, in assay [1] (Het-MλKO mice), the “Akt activation in adipose tissue” value was “increased or trended upward” and the “Akt activation in muscle” value is “increased or trended upward”. The “Akt activation/activity in liver” value in assay [1] (setting [3]) was “increased or trended upward”. Besides, in assay [2] (Het-MλKO mice), the hepatic triglycerides result is “decreased, virtually to normal” and the “resting (basal) serum insulin levels” value is listed as “decreased, virtually to normal”. In assay [2] (setting [3]), the abdominal fat content result was “decreased, virtually to normal”; the serum cholesterol entry was “decreased, virtually to normal”; the serum triglycerides result was “decreased, virtually to normal”; the “serum glucose levels following acute insulin treatment” value was “decreased, virtually to normal”.
